In patent US7872122B2, “Process for making Biolimus A9” (Chunghwa Chemical Synthesis & Biotech Co., Ltd., priority 2009, dated 2011):

Assay: Stability of Biolimus A9 at 40° C. with added anti-oxidant BHT
Type: physicochemical
From the text: The yield data of different amounts of anti-oxidant as added into Biolimus A9 with respect to time lapse of weeks are summarized in Table 1 as below-mentioned.

CCOCCO[C@@H]1CC[C@@H](C[C@@H](C)[C@@H]2CC(=O)[C@H](C)/C=C(\C)[C@@H](O)[C@@H](OC)C(=O)[C@H](C)C[C@H](C)/C=C/C=C/C=C(\C)[C@@H](OC)C[C@@H]3CC[C@@H](C)[C@@](O)(O3)C(=O)C(=O)N3CCCC[C@H]3C(=O)O2)C[C@H]1OC [Biolimus A9]
Purity (%) of Biolimus A9 (BHT 0.0% (w/w), 0 week): 99.7%
Purity (%) of Biolimus A9 (BHT 0.0% (w/w), 2 weeks): 98.2%
Purity (%) of Biolimus A9 (BHT 0.0% (w/w), 4 weeks): 88.4%
Purity (%) of Biolimus A9 (BHT 0.0% (w/w), 6 weeks): 69.7%
Purity (%) of Biolimus A9 (BHT 0.1% (w/w), 0 week): 99.7%
Purity (%) of Biolimus A9 (BHT 0.1% (w/w), 2 weeks): 99.5%
Purity (%) of Biolimus A9 (BHT 0.1% (w/w), 4 weeks): 99.5%
Purity (%) of Biolimus A9 (BHT 0.1% (w/w), 6 weeks): 99.5%
Purity (%) of Biolimus A9 (BHT 0.2% (w/w), 0 week): 99.6%
Purity (%) of Biolimus A9 (BHT 0.2% (w/w), 2 weeks): 99.6%
Purity (%) of Biolimus A9 (BHT 0.2% (w/w), 4 weeks): 99.5%
Purity (%) of Biolimus A9 (BHT 0.2% (w/w), 6 weeks): 99.5%
Purity (%) of Biolimus A9 (BHT 0.5% (w/w), 0 week): 99.6%
Purity (%) of Biolimus A9 (BHT 0.5% (w/w), 2 weeks): 99.5%
Purity (%) of Biolimus A9 (BHT 0.5% (w/w), 4 weeks): 99.4%
Purity (%) of Biolimus A9 (BHT 0.5% (w/w), 6 weeks): 99.4%
Purity (%) of Biolimus A9 (BHT 1.0% (w/w), 0 week): 99.6%
Purity (%) of Biolimus A9 (BHT 1.0% (w/w), 2 weeks): 99.5%
Purity (%) of Biolimus A9 (BHT 1.0% (w/w), 4 weeks): 99.4%
Purity (%) of Biolimus A9 (BHT 1.0% (w/w), 6 weeks): 99.4%
yield after six-week storage (BHT added for 0.1%, 0.2, 0.5%, and 1% (w/w), six-week storage): more than 99.4%
